Measurements taken from PubChem BioAssay (NCI).
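Results reflect a 48-hour exposure of cells in 96-well plates to compound at five concentrations. TGI denotes the concentration required for complete inhibition of growth.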

Assays:
Experiment in all cases: NCI anticancer screen, dose series, 48 h
MDA-MB-231 breast = system: MDA-MB-231 breast
RPMI-8226 leukemia = system: RPMI-8226 leukemia
SF-295 CNS = system: SF-295 CNS
NCI-H226 lung = system: NCI-H226 lung
NCI-H460 lung = system: NCI-H460 lung
HOP-62 NSCLC = system: HOP-62 NSCLC
SF-268 CNS = system: SF-268 CNS
SK-MEL-28 melanoma = system: SK-MEL-28 melanoma
CAKI-1 renal = system: CAKI-1 renal
COLO 205 colon = system: COLO 205 colon
BT-549 breast = system: BT-549 breast
HL-60(TB) leukemia = system: HL-60(TB) leukemia
A549 NSCLC = system: A549 NSCLC
OVCAR-4 ovarian = system: OVCAR-4 ovarian
HCC-2998 colon = system: HCC-2998 colon
SNB-75 CNS = system: SNB-75 CNS
A498 renal = system: A498 renal
SR leukemia = system: SR leukemia
K-562 leukemia = system: K-562 leukemia
HOP-92 NSCLC = system: HOP-92 NSCLC
SK-OV-3 ovarian = system: SK-OV-3 ovarian
OVCAR-3 ovarian = system: OVCAR-3 ovarian
SK-MEL-5 melanoma = system: SK-MEL-5 melanoma
OVCAR-8 ovarian = system: OVCAR-8 ovarian
M14 melanoma = system: M14 melanoma
NCI-H522 lung = system: NCI-H522 lung
TK-10 renal = system: TK-10 renal
OVCAR-5 ovarian = system: OVCAR-5 ovarian
MOLT-4 leukemia = system: MOLT-4 leukemia
CCRF-CEM leukemia = system: CCRF-CEM leukemia
T-47D breast = system: T-47D breast
DU-145 prostate = system: DU-145 prostate
RXF 393 renal = system: RXF 393 renal
NCI/ADR-RES ovarian = system: NCI/ADR-RES ovarian
EKVX NSCLC = system: EKVX NSCLC
HS 578T breast = system: HS 578T breast
MDA-MB-435 = system: MDA-MB-435
PC-3 prostate = system: PC-3 prostate
MALME-3M melanoma = system: MALME-3M melanoma
786-0 renal = system: 786-0 renal
ACHN renal = system: ACHN renal
HCT-116 colon = system: HCT-116 colon
U251 CNS = system: U251 CNS
UACC-62 melanoma = system: UACC-62 melanoma
MCF7 breast = system: MCF7 breast
SN12C renal = system: SN12C renal
SNB-19 CNS = system: SNB-19 CNS
SK-MEL-2 melanoma = system: SK-MEL-2 melanoma
HCT-15 colon = system: HCT-15 colon
SF-539 CNS = system: SF-539 CNS
NCI-H23 lung = system: NCI-H23 lung
SW-620 colon = system: SW-620 colon
LOX IMVI melanoma = system: LOX IMVI melanoma
MDA-N = system: MDA-N
HT29 colon = system: HT29 colon
UACC-257 melanoma = system: UACC-257 melanoma
KM12 colon = system: KM12 colon
IGROV1 ovarian = system: IGROV1 ovarian

Measured: TGI

O=c1c2cccnc2[nH]c2ccc3[nH]ncc3c12
> 10 µM: MDA-MB-231 breast | RPMI-8226 leukemia | SF-295 CNS | NCI-H226 lung | NCI-H460 lung | HOP-62 NSCLC | SF-268 CNS | SK-MEL-28 melanoma | CAKI-1 renal | COLO 205 colon | BT-549 breast | HL-60(TB) leukemia | A549 NSCLC | OVCAR-4 ovarian | HCC-2998 colon | SNB-75 CNS | A498 renal | SR leukemia | K-562 leukemia | HOP-92 NSCLC | SK-OV-3 ovarian | OVCAR-3 ovarian | SK-MEL-5 melanoma | OVCAR-8 ovarian | M14 melanoma | NCI-H522 lung | TK-10 renal | OVCAR-5 ovarian | MOLT-4 leukemia | CCRF-CEM leukemia | T-47D breast | DU-145 prostate | RXF 393 renal | NCI/ADR-RES ovarian | EKVX NSCLC | HS 578T breast | MDA-MB-435 | PC-3 prostate | MALME-3M melanoma | 786-0 renal | ACHN renal | HCT-116 colon | U251 CNS | UACC-62 melanoma | MCF7 breast | SN12C renal | SNB-19 CNS | SK-MEL-2 melanoma | HCT-15 colon | SF-539 CNS | NCI-H23 lung | SW-620 colon | LOX IMVI melanoma | MDA-N | HT29 colon | UACC-257 melanoma | KM12 colon | IGROV1 ovarian
